Measured values taken from patent US12583870B2, “Azaheteroaryl compound and application thereof” (SHANGHAI BLUERAY BIOPHARMA CO., LTD., priority 2019, dated 2026).

Assays:
KARPAS-422 cells = assay: Cell proliferation analysis, KARPAS-422, 13 days, CellTiter-Glo; format: cell-based; conditions: Homo sapiens, 312 h
In short: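 KARPAS-422 cells were treated with PRC2 inhibitors over 9 three-fold dilutions from 10 μM top (0.5% DMSO, duplicates) in RPMI-1640 with 15% FBS at 37 °C. Every 3–4 days cells were counted and reseeded at 1×10^4/well with fresh compound. Viability was read by CellTiter-Glo luminescence on day 13.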

[1] = target: T1, EED protein (His6-tagged full-length) binding to H3K27me3 polypeptide (Homo sapiens, UniProt O75530); assay: AlphaScreen evaluation of blocking the binding of EED to H3K27Me3; conditions: EED 60 nM, biotinylated H3K27me3 75 nM, 30 minutes incubation
T1 construct: His6-tagged full-length EED protein (441 amino acids)
T1 sequence (O75530 whole entry): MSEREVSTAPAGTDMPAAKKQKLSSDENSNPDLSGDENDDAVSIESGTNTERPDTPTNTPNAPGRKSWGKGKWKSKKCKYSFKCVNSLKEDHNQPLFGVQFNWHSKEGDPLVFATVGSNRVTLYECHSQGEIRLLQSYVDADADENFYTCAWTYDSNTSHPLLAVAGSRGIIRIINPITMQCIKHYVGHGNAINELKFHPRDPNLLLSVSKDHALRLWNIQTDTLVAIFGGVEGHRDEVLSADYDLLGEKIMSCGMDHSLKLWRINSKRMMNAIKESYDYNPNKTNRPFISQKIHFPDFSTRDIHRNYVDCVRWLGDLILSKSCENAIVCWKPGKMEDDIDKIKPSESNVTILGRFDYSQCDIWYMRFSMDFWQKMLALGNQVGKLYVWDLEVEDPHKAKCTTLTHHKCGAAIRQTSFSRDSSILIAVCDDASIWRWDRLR
Description: Firstly, compound solutions of different concentration gradients were prepared. Compound powder was dissolved in DMSO to prepare a mother liquor. 1.5 μl of the mother liquor of the compound was taken and added into 198.5 μl of a reaction buffer (25 mM HEPES (pH 8.0), 50 mM NaCl, 0.015% Tween 20, 0.5% BSA). The mixture was mixed uniformly. Then a 3-fold series dilution was carried out with the above-mentioned buffer containing 0.75% DMSO. 9 different test concentrations were provided for one same compound. 5 μL of compounds of different concentration gradients were taken and added into the ProxiPlate-384 Plus, White detection plate (PerkinElmer, 6008280) and two replicates in parallel were provided for each concentration gradient.
Secondly, a reaction for blocking the binding was carried out. The above-mentioned buffer was used to dilute His6-tagged full-length EED protein (441 amino acids) to 60 nM and biotinylated polypeptide fragment H3K27me3 (amino acids at positions 19-33) (Biotinylated-H3K27me3) to 75 nM. 5 μl of the polypeptide fragment at the concentration of 75 nM and 5 µl of the protein at the concentration of 60 nM were transferred to the detection wells containing the compound, respectively. The detection plate was sealed with the film and incubation was carried out at room temperature for 30 minutes.
Finally, the detection was carried out with the AlphaScreen method. Prior use, nickel chelate receptor beads and streptavidin donor beads (at the ratio of 1:1, Perkin Elmer, product number 6760619M) were mixed with the above-mentioned reaction buffer. Then 5 μl of the above-mentioned pre-mixed detection solution was added to each of the detection wells. The donor beads and receptor beads were both at a final concentration of 5 μg/mL. The detection plate was covered and sealed with tinfoil and placed in the dark at room temperature for 1 hour. The signal was read using the AlphaScreen detector on the Spectra max i3. AlphaScreen signals were standardlized based on the readings obtained from positive controls (maximum signal controls) and negative controls (minimum signal controls) to give the inhibition rates for compounds at different concentrations, and afterwards non-linear regression analysis was carried out using GraphPad Prism 5, inhibition curves were made based on the Dose-Response equation of Y=Bottom+(Top−Bottom)/(1+10^((Log IC50−X)*HillSlope)) and the IC50 values of each compound were obtained. […]

[2] = test system: trimethylation level of histone H3K27 in G401 cells; assay: ELISA (H3K27 trimethylation) analysis in G401 cells; format: cell-based; conditions: Homo sapiens, G-401, 72 hours, H3K27me3 standardized to H3
In short: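 Cells exposed 72 h to 10-point 3-fold dilutions, top 10 μM, 0.5% final DMSO. Acid-extracted histones assayed by ELISA (ECL) for H3K27me3, normalized to total H3 and to DMSO control; IC50 from dose-response fit.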

Structure (SMILES) | IC50 (KARPAS-422 cells) [µM] | IC50 [1] [µM] | IC50 [2] [µM]
Fc1ccc2c(c1CNc1ncc(-c3ccc4nncn4c3)c3nncn13)[C@H]1C[C@H]1O2 [8-([1,2,4]triazolo[4,3-a]pyridin-6-yl)-N-(((1aR,6bR)-5-fluoro-1a,6b-dihydro-1H-cyclopropa[b]benzofuran-6-yl)methyl)-[1,2,4]triazolo[4,3-c]pyrimidin-5-amine] | 0.0431 | 0.0042 | 0.0064
Fc1ccc2c(c1CNc1ncc(-c3cnc4ccnn4c3)c3nncn13)CCO2 [N-((5-fluoro-2,3-dihydrobenzofuran-4-yl)methyl)-8-(pyrazolo[1,5-a]pyrimidin-6-yl)-[1,2,4]triazolo[4,3-c]pyrimidin-5-amine] | 0.0183 | 0.0057 | 0.018
Cc1ccc(-c2cnc(NCc3c(F)ccc4c3CCO4)n3cnnc23)c2nccn12 [N-((5-fluoro-2,3-dihydrobenzofuran-4-yl)methyl)-8-(5-methylimidazo[1,2-a]pyridin-8-yl)-[1,2,4]triazolo[4,3-c]pyrimidin-5-amine] | 0.0013 | 0.0058 | 0.0013
CCc1cnc2c(-c3cnc(NCc4c(F)ccc5c4CCO5)n4cnnc34)cccn12 [8-(3-ethylimidazo[1,2-a]pyridin-8-yl)-N-((5-fluoro-2,3-dihydrobenzofuran-4-yl)methyl)-[1,2,4]triazolo[4,3-c]pyrimidin-5-amine] | 0.0009 | 0.0025 | 0.0009
COC(=O)c1ccc(-c2cnc(NCc3c(F)ccc4c3CCO4)n3cnnc23)c2nccn12 [Methyl 8-(5-(((5-fluoro-2,3-dihydrobenzofuran-4-yl)methyl)amino)-[1,2,4]triazolo[4,3-c]pyrimidin-8-yl)imidazo[1,2-a]pyridine-5-carboxylate] | 0.0051 | 0.008 | 0.0035
CCOC(=O)c1cnc2c(-c3cnc(NCc4c(F)ccc5c4CCO5)n4cnnc34)cccn12 [Ethyl 8-(5-(((5-fluoro-2,3-dihydrobenzofuran-4-yl)methyl)amino)-[1,2,4]triazolo[4,3-c]pyrimidin-8-yl)imidazo[1,2-a]pyridine-3-carboxylate] | 0.004 | 0.0023 | 0.006
Cc1ccc(-c2cnc(NCc3c(F)ccc4c3CCO4)n3cnnc23)c2nc(CO)cn12 [(8-(5-(((5-fluoro-2,3-dihydrobenzofuran-4-yl)methyl)amino)-[1,2,4]triazolo[4,3-c]pyrimidin-8-yl)-5-methylimidazo[1,2-a]pyridin-2-yl)methanol] | 0.0033 | 0.0083 | 0.0014
O=S1(=O)C=c2ccc(-c3cnc(NCc4c(F)ccc5c4CCCO5)n4cnnc34)cc2=C1 [5-(5-(((6-fluorochroman-5-yl)methyl)amino)-[1,2,4]triazolo[4,3-c]pyrimidin-8-yl)benzo[c]thiophene 2,2-dioxide] | 0.0016 | 0.0064 | 0.002
Fc1ccc2c(c1CNc1ncc(-c3cccn4ncnc34)c3nncn13)[C@H]1C[C@H]1O2 [8-([1,2,4]triazolo[1,5-a]pyridin-8-yl)-N-(((1aR,6bR)-5-fluoro-1a,6b-dihydro-1H-cyclopropa[b]benzofuran-6-yl)methyl)-[1,2,4]triazolo[4,3-c]pyrimidin-5-amine] | 0.0019 | 0.004 | 0.0007

Results, then the molecule that gave them:

IC50 (KARPAS-422 cells) [µM] | IC50 [1] [µM] | IC50 [2] [µM] | Structure (SMILES)
0.0115 | 0.0044 | 0.0092 | O=S1(=O)C=Cc2c(-c3cnc(NCc4c(F)ccc5c4[C@H]4C[C@H]4O5)n4cnnc34)cccc21 [4-(5-((((1aR,6bR)-5-fluoro-1a,6b-dihydro-1H-cyclopropa[b]benzofuran-6-yl)methyl)amino)-[1,2,4]triazolo[4,3-c]pyrimidin-8-yl)benzo[b]thiophene 1,1-dioxide]
0.0125 | 0.0049 | 0.0041 | CC1=Cc2cc(-c3cnc(NCc4c(F)ccc5c4[C@H]4C[C@H]4O5)n4cnnc34)ccc2S1(=O)=O [5-(5-((((1aR,6bR)-5-fluoro-1a,6b-dihydro-1H-cyclopropa[b]benzofuran-6-yl)methyl)amino)-[1,2,4]triazolo[4,3-c]pyrimidin-8-yl)-2-methylbenzo[b]thiophene 1,1-dioxide]
0.0007 | 0.0049 | 0.0021 | O=S1(=O)C=Cc2cc(-c3cnc(NCc4c(F)ccc5c4CCO5)n4cnnc34)ccc21 [5-(5-(((5-fluoro-2,3-dihydrobenzofuran-4-yl)methyl)amino)-[1,2,4]triazolo[4,3-c]pyrimidin-8-yl)benzo[b]thiophene 1,1-dioxide]
0.0016 | 0.0048 | 0.0025 | CC(=O)c1c(C)nc2c(-c3cnc(NCc4c(F)ccc5c4CCO5)n4cnnc34)cccn12 [1-(8-(5-(((5-fluoro-2,3-dihydrobenzofuran-4-yl)methyl)amino)-[1,2,4]triazolo[4,3-c]pyrimidin-8-yl)-2-methylimidazo[1,2-a]pyridin-3-yl)ethan-1-one]
0.0008 | 0.0063 | 0.0006 | O=S1(=O)C=c2ccc(-c3cnc(NCc4c(F)ccc5c4[C@H]4C[C@H]4O5)n4cnnc34)cc2=C1 [5-(5-((((1aR,6bR)-5-fluoro-1a,6b-dihydro-1H-cyclopropa[b]benzofuran-6-yl)methyl)amino)-[1,2,4]triazolo[4,3-c]pyrimidin-8-yl)benzo[c]thiophene 2,2-dioxide]
0.0005 | 0.0041 | 0.0009 | Cc1cc2c(cc1-c1cnc(NCc3c(F)ccc4c3CCO4)n3cnnc13)C=CS2(=O)=O [5-(5-(((5-fluoro-2,3-dihydrobenzofuran-4-yl)methyl)amino)-[1,2,4]triazolo[4,3-c]pyrimidin-8-yl)-6-methylbenzo[b]thiophene 1,1-dioxide]
0.0095 | 0.0023 | 0.0171 | Fc1cc(-c2cnc(NCc3c(F)ccc4c3CCO4)n3cnnc23)c2nc(C(F)(F)F)cn2c1 [N-((5-fluoro-2,3-dihydrobenzofuran-4-yl)methyl)-8-(6-fluoro-2-(trifluoromethyl)imidazo[1,2-a]pyridin-8-yl)-[11,2,4]triazolo[4,3-c]pyrimidin-5-amine]
0.0037 | 0.0035 | 0.0041 | NC(=O)c1cnc2c(-c3cnc(NCc4c(F)ccc5c4CCO5)n4cnnc34)cccn12 [8-(5-(((5-fluoro-2,3-dihydrobenzofuran-4-yl)methyl)amino)-[1,2,4]triazolo[4,3-c]pyrimidin-8-yl)imidazo[1,2-a]pyridine-3-carboxamide]
0.097 | 0.123 | 0.078 | O=S1(=O)C=C(F)c2cc(-c3cnc(NCc4c(F)ccc5c4[C@H]4C[C@H]4O5)n4cnnc34)ccc21 [3-fluoro-5-(5-((((1aR,6bR)-5-fluoro-1a,6b-dihydro-1H-cyclopropa[b]benzofuran-6-yl)methyl)amino)-[1,2,4]triazolo[4,3-c]pyrimidin-8-yl)benzo[b]thiophene 1,1-dioxide]
0.0042 | 0.0092 | 0.0078 | Cc1nc2c(-c3cnc(NCc4c(F)ccc5c4CCO5)n4cnnc34)cccc2o1 [N-((5-fluoro-2,3-dihydrobenzofuran-4-yl)methyl)-8-(2-methylbenzo[d]oxazol-4-yl)-[1,2,4]triazolo[4,3-c]pyrimidin-5-amine]
